# Laboratory results: patent publication US7759345B2, “Antitumoral derivatives of ET-743” (priority 2001, dated 2010)
# How the values were obtained:
# P-388 = assay: Inhibition of cell growth by counting cells, P-388; type: cell-based, mouse; details: Mus musculus, P388, 72 h; three days of incubation; read-out: IC50 (molar) P-388
# Description: (§1) 1°.—Inhibition of Cell Growth by Counting Cells.
# (§2) This form of the assay employs 24 well multidishes of 16 mm diameter (Bergeron, 1984; Schroeder, 1981). The tumor cell lines employed are: P-388 (ATCC CCL 46), suspension culture of a lymphoid neoplasm from a DBA/2 mouse; A-549 (ATCC CCL 185), monolayer culture of a human lung carcinoma; HT-29 (ATCC HTB-38), monolayer culture of a human colon carcinoma; MEL-28 (ATCC HTB-72), monolayer culture of a human melanoma and DU-145 (ATCC HTB-81), monolayer culture of a human prostate carcinoma.
# (§3) Cells were maintained, in logarithmic phase of growth in Eagle's Minimum Essential Medium, with Earle's Balanced Salts, with non-essential amino acids, with 2.0 mM L-Glutamine, without sodium bicarbonate (EMEM/neaa), supplemented with 10% Fetal Calf Serum (FCS), 10^−2 M. sodium bicarbonate and 0.1 U/l penicillin G+0.1 g/l streptomycin sulfate. For the experiments, cells are harvested from subconfluent cultures using trypsin and resuspended in fresh medium before plating.
# (§4) P-388 cells were seeded into 16 mm diameter wells at 1×10^4 cells per well in 1 ml aliquots of EMEM 5% FCS containing different concentrations of the sample to be tested. A separate set of cultures without drug was seeded as control of growth, to ensure that cells remained in exponential phase of growth. All determinations are carrying out in duplicate.
# (§5) For quantifying the activity, after the incubation time, cells are trypsinized and counted in a Coulter Counter ZM. All counts (net cells per well), represent the average of duplicate wells. % G, percent of growth relative to cultures without drug. The results of these assays are used to generate dose-response curves from which more precise IC50 values are determined (sample concentration which produces 50% cell growth inhibition).
# (§6) Obtained results may predict the usefulness of a certain drug as a potential cancer treatment. For this technique, compounds which show IC50 values smaller than 1 μg/ml are selected to continue with further studies. IC50's data allow to predict that not only could a drug be cystostatic, but also it could have a potential in terms of tumor reduction.
# MEL-28 = assay: Inhibition of cell growth by counting cells, MEL-28; type: cell-based, human; details: Homo sapiens, SK-MEL-28, 72 h; three days of incubation; read-out: IC50 (molar) MEL-28
# Description: as §1, §2, §3
# as §4, with “A-549, HT-29, MEL-28 and DU-145” for “P-388”, “duplicate. After three days of incubation at 37° C., 5% CO2 in a 98% humid atmosphere cells were stained with 0.1% crystal violet. An approximately IC50 was determined by comparing the growth in wells with drug to the growth in wells control.” for “duplicate.”
# as §5, §6
# DU-145 = assay: Inhibition of cell growth by counting cells, DU-145; type: cell-based, human; details: Homo sapiens, DU-145, 72 h; three days of incubation; read-out: IC50 (molar) DU-145
# Description: as §1, §2, §3
# as §4, with “A-549, HT-29, MEL-28 and DU-145” for “P-388”, “duplicate. After three days of incubation at 37° C., 5% CO2 in a 98% humid atmosphere cells were stained with 0.1% crystal violet. An approximately IC50 was determined by comparing the growth in wells with drug to the growth in wells control.” for “duplicate.”
# as §5, §6
# A-549 [1] = assay: Inhibition of cell growth by counting cells, A-549; type: cell-based, human; details: Homo sapiens, A549, 72 h; three days of incubation; read-out: IC50 (molar) A-549
# Outline: (§7)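 Monolayer lines were plated at 1×10^4 cells per well with compound in medium containing 5% FCS. After a 3-day incubation at 37° C, crystal violet staining gave an approximate IC50, and cell counting of duplicate wells gave the dose-response IC50.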
# HT-29 [2] = assay: Inhibition of cell growth by counting cells, HT-29; type: cell-based, human; details: Homo sapiens, HT-29, 72 h; three days of incubation; read-out: IC50 (molar) HT-29
# Outline: as §7
# HT-29 [3] = assay: Inhibition of cells growth by colorimetric assay (SRB), HT-29; type: cell-based
# Description: (§8) 2°.—Inhibition of Cells Growth by Colorimetric Assay.
# (§9) A colorimetric type of assay, using sulforhodamine B (SRB) reaction has been adapted for a quantitative measurement of cell growth and viability [following the technique described by Philip Skehan, et al. (1990), New colorimetric cytotoxicity assay for anticancer drug screening, J. Natl. Cancer Inst., 82:1107-1112]
# (§10) This form of the assay employs 96 well cell culture microplates of 9 mm diameter (Faircloth, 1988; Mosmann, 1983). Most of the cell lines are obtained from American Type Culture Collection (ATCC) derived from different human cancer types.
# (§11) Cells are maintained in RPMI 1640 10% FBS, supplemented with 0.1 g/l penicillin and 0.1 g/l streptomycin sulfate and then incubated at 37° C., 5% CO2 and 98% humidity. For the experiments, cells were harvested from subconfluent cultures using trypsin and resuspended in fresh medium before plating.
# (§12) Cells are seeded in 96 well microtiter plates, at 5×10^3 cells per well in aliquots of 195 μl medium, and they are allowed to attach to the plate surface by growing in drug free medium for 18 hours. Afterward, samples are added in aliquots of 5 μl in a ranging from 10 to 10^−8 μg/ml, dissolved in DMSO/EtOH/PBS (0.5:0.5:99). After 48 hours exposure, the antitumor effect are measured by the SRB methodology: cells are fixed by adding 50 μl of cold 50% (wt/vol) trichloroacetic acid (TCA) and incubating for 60 minutes at 4° C. Plates are washed with deionized water and dried. One hundred μl of SRB solution (0.4% wt/vol in 1% acetic acid) is added to each microtiter well and incubated for 10 minutes at room temperature. Unbound SRB is removed by washing with 1% acetic acid. Plates are air dried and bound stain is solubilized with Tris buffer. Optical densities are read on a automated spectrophotometric plate reader at a single wavelength of 490 nm.
# (§13) The values for mean+/−SD of data from triplicate wells are calculated. Some parameters for cellular responses can be calculated: GI=growth inhibition, TGI=total growth inhibition (cytostatic effect) and LC=cell killing (cytotoxic effect).
# (§14) Obtained results may predict the usefulness of a certain drug as a potential cancer treatment. For this technique, compounds which show GI50 values smaller than 10 μg/ml are selected to continue with further studies. GI50's data allow to predict that not only could a drug be cystostatic, but also it could have a potential in terms of tumor reduction.
# SK-MEL-28 = assay: Inhibition of cells growth by colorimetric assay (SRB), SK-MEL-28; type: cell-based; details: Homo sapiens, SK-MEL-28, 48 h, SRB assay, 48 hours exposure; read-out: MEL-28 GI50
# Description: as §8, §9, §10, §11, §12, §13, §14
# A-549 [4] = assay: Inhibition of cells growth by colorimetric assay (SRB), A-549; type: cell-based
# Description: as §8, §9, §10, §11, §12, §13, §14
Structure (SMILES),IC50 (P-388),IC50 (MEL-28),IC50 (DU-145),IC50 (A-549 [1]),IC50 (HT-29 [2]),"GI50 (HT-29 [3]; Homo sapiens, HT-29, 48 h, SRB assay, 48 hours exposure, read-out: HT-29 GI50)","LC50 (concentration for 50% cell killing) (HT-29 [3]; Homo sapiens, HT-29, 48 h, read-out: HT-29 LC50, SRB assay, 48 hours exposure)","HT-29 TGI (HT-29 [3]; SRB assay, 48 hours exposure)",GI50 (SK-MEL-28),"GI50 (A-549 [4]; Homo sapiens, A549, 48 h, SRB assay, 48 hours exposure, read-out: A-549 GI50)","LC50 (concentration for 50% cell killing) (A-549 [4]; Homo sapiens, A549, 48 h, read-out: A-549 LC50, SRB assay, 48 hours exposure)","A-549 TGI (A-549 [4]; SRB assay, 48 hours exposure)"
COc1cc2c(cc1OC(=O)C(F)(F)F)CCN[C@]21CS[C@@H]2c3c(OC(C)=O)c(C)c4c(c3[C@H](COC1=O)N1C2[C@H]2c3c(cc(C)c(OC)c3O)C[C@@H]([C@@H]1C#N)N2C)OCO4 (stereo partly shown) [Compound 3],1.15 nM,1.15 nM,1.15 nM,1.15 nM,1.15 nM,–,–,–,–,–,–,–
COc1cc2c(cc1OC(=O)OC(C)(C)C)CCN[C@]21CS[C@@H]2c3c(OC(C)=O)c(C)c4c(c3[C@H](COC1=O)N1C2[C@H]2c3c(cc(C)c(OC)c3O)C[C@@H]([C@@H]1C#N)N2C)OCO4 (stereo partly shown) [Compound 4],0.115 nM,0.115 nM,0.115 nM,0.115 nM,0.115 nM,–,–,–,–,–,–,–
CCCN1CCc2cc(O)c(OC)cc2[C@@]12CS[C@@H]1c3c(OC(C)=O)c(C)c4c(c3[C@H](COC2=O)N2C1[C@H]1c3c(cc(C)c(OC)c3O)C[C@@H]([C@@H]2C#N)N1C)OCO4 (stereo partly shown) [Compound 56],0.123 nM,0.123 nM,–,0.123 nM,0.123 nM,–,–,–,–,–,–,–
COc1cc2c(cc1OC(C)=O)CCN[C@]21CS[C@@H]2c3c(OC(C)=O)c(C)c4c(c3[C@H](COC1=O)N1C2[C@H]2c3c(cc(C)c(OC)c3OC(C)=O)C[C@@H]([C@@H]1O)N2C)OCO4 (stereo partly shown) [Compound 80],2.96 nM,5.92 nM,–,5.92 nM,5.92 nM,–,–,–,–,–,–,–
COc1cc2c(cc1O)CCN[C@]21CS[C@@H]2c3c(OC(C)=O)c(C)c4c(c3[C@H](COC1=O)N1C2[C@H]2c3c(cc(C)c(OC)c3OC(C)=O)C[C@@H]([C@@H]1O)N2C)OCO4 (stereo partly shown) [Compound 96],1.25 nM,1.25 nM,–,1.25 nM,1.25 nM,–,–,–,–,–,–,–
COc1cc2c(cc1O)CCN[C@]21CS[C@@H]2c3c(O)c(C)c4c(c3[C@H](COC1=O)N1C2[C@@H]2N[C@@H](Cc3cc(C)c(OC)c(O)c32)[C@@H]1C#N)OCO4 (stereo partly shown) [Compound 184],0.699 nM,0.699 nM,–,0.699 nM,0.699 nM,–,–,–,–,–,–,–
COc1cc2c(cc1O)CCN(C)[C@]21CS[C@@H]2c3c(OC(C)=O)c(C)c4c(c3[C@H](COC1=O)N1C[C@@H]3Cc5cc(C)c(OC)c(O)c5[C@H](C21)N3C)OCO4 (stereo partly shown) [Compound 185],13.2 nM,13.2 nM,–,13.2 nM,13.2 nM,–,–,–,–,–,–,–
COc1cc2c(cc1O)CCN[C@]21CS[C@@H]2c3c(OC(C)=O)c(C)c4c(c3[C@H](COC1=O)N1C2[C@@H]2N[C@@H](Cc3cc(C)c(OC)c(O)c32)[C@@H]1C#N)OCO4 (stereo partly shown) [Compound 186],0.159 nM,0.159 nM,–,0.159 nM,0.159 nM,–,–,–,–,–,–,–
C=CCOC(=O)Oc1cc2c(cc1OC)[C@@]1(CS[C@@H]3c4c(OC(C)=O)c(C)c5c(c4[C@H](COC1=O)N1C3[C@H]3c4c(cc(C)c(OC)c4O)C[C@@H]([C@@H]1C#N)N3C(=O)OCC=C)OCO5)NCC2 (stereo partly shown) [Compound 187],1.08 nM,1.08 nM,–,1.08 nM,1.08 nM,–,–,–,–,–,–,–
COc1cc2c(cc1O)CCN[C@]21CS[C@@H]2c3c(OC(C)=O)c(C)c4c(c3[C@H](COC1=O)N1C2[C@H]2c3c(cc(C)c(OC)c3O)C[C@@H]([C@@H]1C#N)N2C(=O)OC(C)(C)C)OCO4 (stereo partly shown) [Compound 188],0.583 nM,0.583 nM,–,0.583 nM,0.583 nM,–,–,–,–,–,–,–
COc1cc2c(cc1OC(=O)OC(C)(C)C)CCN[C@]21CS[C@@H]2c3c(OC(C)=O)c(C)c4c(c3[C@H](COC1=O)N1C2[C@@H]2N[C@@H](Cc3cc(C)c(OC)c(O)c32)[C@@H]1C#N)OCO4 (stereo partly shown) [Compound 189],0.583 nM,0.583 nM,–,0.583 nM,0.583 nM,–,–,–,–,–,–,–
COc1cc2c(cc1OC(=O)OC(C)(C)C)CCN[C@]21CS[C@@H]2c3c(OC(C)=O)c(C)c4c(c3[C@H](COC1=O)N1C2[C@H]2c3c(cc(C)c(OC)c3O)C[C@@H]([C@@H]1C#N)N2C(=O)OC(C)(C)C)OCO4 (stereo partly shown) [Compound 190],5.22 nM,5.22 nM,–,5.22 nM,5.22 nM,–,–,–,–,–,–,–
C=CCOc1c(OC)c(C)cc2c1[C@H]1N[C@@H](C2)[C@H](C#N)N2C1[C@@H]1SC[C@]3(NCCc4cc(O)c(OC)cc43)C(=O)OC[C@H]2c2c3c(c(C)c(OC(C)=O)c21)OCO3 (stereo partly shown) [Compound 201],12.6 nM,15.7 nM,–,15.7 nM,15.7 nM,–,–,–,–,–,–,–
CCCCCCCCCCCCCCCC(=O)Oc1cc2c(cc1OC)[C@@]1(CS[C@@H]3c4c(OC(C)=O)c(C)c5c(c4[C@H](COC1=O)N1C3[C@@H]3N[C@@H](Cc4cc(C)c(OC)c(O)c43)[C@@H]1O)OCO5)NCC2 (stereo partly shown) [Compound 215],–,–,–,–,–,86.8 nM,10100 nM,1.01E-05,19.7 nM,92.4 nM,10100 nM,1.01E-05
